System: AML-3 leukemic cell line
Assay: TUNEL, flow cytometry
Format: cell-based, human
Set-up: unit: %
Conditions: 48 h
Experimental: (§1) Adherent cell lines were plated at 35×10^4 cells/60 cm^2 dish the day before exposure to compound. Suspension cells were seeded at 25×10^4 cells/mL in a 6 well dish (Falcon) the day of exposure to compound. Mononucleated, T-cell depleted normal bone marrow cells were seeded at 50×10^4 cells/mL in a 6 well dish the day of exposure to compound. Cells were exposed to solvent control or approximate MTT50 and MTT30 concentrations of the compound. After 48 h of exposure to the compound, cells were harvested and fixed with a final concentration of 4% formaldehyde. Fixed cells were stored at −20° C. in 70% ethanol for no more than 5 days. Approximately 10^5 cells were pelleted and labeled with 0.02 mM Biotin-dUTP and 12.5 U TdT enzyme in a 1× reaction buffer (200 mM potassium cacodylate, 25 mM Tris-HCl, 25 μg/mL bovine serum albumin, pH 6.6), 2.5 mM CoCl2 and 0.01 mM dTTP (Roche Molecular Biochemicals, Laval, QC, Canada) for 45 min at 37° C. Samples were washed and incubated in 200 μL of 1:1000 fluorescein isothiocyanate (FITC)-conjugated avidin (Sigma) in 4×SSC, 5% skim milk powder and 0.05% Tween-20 (Sigma). Following 1 h of mixing at room temperature, the samples were washed and resuspended in 500 μL of D-PBS containing 2.5 μg/mL DNase-free RNase (Boehringer Mannheim) and 10 μg/mL PI. Following a 30 min incubation at room temperature, cells were analyzed using a XL-MCL flow cytometer (Coulter Corporation, Miami, Fla.) and a FACScalibar cytometer (Becton Dickinson, San Jose, Calif.). Profiles shown are representative of one experiment.
as §1, with “? s” for “Cells”, “appr ? nate” for “approximate”, “of” for “of the”, “Pl.” for “PI.”

Compound: CSSCS(=O)(=O)c1ccc(C)cc1 [Compound C, α-p-toluenesulfonyl dimethyl disulphide]
- TUNEL FITC +ve (dose 20.2 uM (10 ug/mL)): 22.4

Compound: CSCSCS(C)(=O)=O [B]
- TUNEL FITC +ve (dose 107 uM (20 ug/mL)): 3.85

Compound: COC(=O)CSSC [H, methyl 3,4-dithiopentanoate]
- TUNEL FITC +ve (dose 65.7 uM (10 ug/mL)): 10.2

Compound: CSSCOC(C)=O [I, 2,3-dithiabutyl acetate]
- TUNEL FITC +ve (dose 32.8 uM (5 ug/mL)): 57.3

Compound: CS(=O)(=O)CSCS(C)(=O)=O [G, 2,4,6-trithiaheptane 2,2,6,6-tetraoxide]
- TUNEL FITC +ve (dose 45.8 uM (10 ug/mL)): 3.0

Compound: CSSCCS(C)(=O)=O [F, 2,3,6-trithiaheptane 6,6,-dioxide]
- TUNEL FITC +ve (dose 45.8 uM (10 ug/mL)): 31.9

Source: patent US20030220524A1, “Sulfur containing compounds” (priority 2000, published 2003)
